Consider one molecule from paper PMC2742562 (ACS chemical biology, 2009).

In the test the target is glucose/galactose binding protein (GGBP) (Escherichia coli, UniProt P0AEE5). Put plainly: […] galactose competition binding assay.
Sequence of glucose/galactose binding protein (GGBP) (P0AEE5 24-332 limits assumed): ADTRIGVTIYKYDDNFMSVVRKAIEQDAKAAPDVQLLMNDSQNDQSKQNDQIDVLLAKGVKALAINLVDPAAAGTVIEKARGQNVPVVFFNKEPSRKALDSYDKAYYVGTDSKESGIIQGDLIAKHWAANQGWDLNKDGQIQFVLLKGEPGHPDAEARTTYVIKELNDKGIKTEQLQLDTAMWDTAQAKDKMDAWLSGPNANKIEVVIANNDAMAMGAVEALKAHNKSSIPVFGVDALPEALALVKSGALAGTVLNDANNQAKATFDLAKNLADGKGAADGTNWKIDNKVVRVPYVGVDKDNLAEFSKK

In the case of `OC[C@H]1O[C@@H](OCCO[C@H]2[C@H](O)[C@@H](CO)OC(O)[C@@H]2O)[C@H](O)[C@@H](O)[C@@H]1O` (stereo partly drawn) [DWI, 3-O-(2'-beta-D-glucopyanosyloxyethyl)-D-glucose], the Ki – broadly, the equilibrium dissociation constant of an inhibitor or competing ligand from its target – came out at 27 ± 7 µM.
